What all share (assay type): cell-based, human
What all share (settings): multiple exposure: four applications every 24 h, analyzed 12 h after the last; 30 μM ATL, 100 μM GER, 20 μM LOV

Experiment [1] has as its system HMGCR mRNA. Nature of the experiment: RT-qPCR mRNA expression in dHepaRG cells. As to the method:
The mRNA and protein expression changes were measured after a single administration of ALA and GER. Three concentrations were selected for each compound (non-toxic, non-toxic/slightly toxic and toxic). The cholesterol level of the dHepaRG cells was measured after a multiple exposure of the highest non-toxic concentrations of tested compounds. ATL (30 µM) and GER (100 µM) were administered four times every 24 h. The expression changes of genes and proteins related to cholesterol metabolism were measured in both single and multiple exposure experiments.
All treatments were performed in triplicates and every experiment was performed three times. The cells were washed twice with ice cold phosphate-buffered saline (PBS), scrapped and stored at −80 °C until use. Total RNA from cells was isolated using TriReagent according to the manufacturer’s instructions (Biotech, Prague, Czech Republic). The purified RNA was dissolved in 40 µL of diethyl pyrocarbonate (DEPC)-treated water (0.01% DEPC in HPLC water, autoclaved) and stored at −80 °C. The measurement of absorbance at 260 and 280 nm using the NanoDrop ND-1000 UV–VIS Spectrophotometer (Thermo Fisher Scientific, Pardubice, Czech Republic) was used to determine RNA yields and purity. Subsequently, the RNA (4 µg) was treated with 2 U of DNase I (New England Biolabs, Ipswich, MA, USA) in a final volume of 30 µL for 25 min at 37 °C, 1.5 µL of 0.1 M ethylenediaminetetraacetic acid was added and the DNAse was inactivated by heat (5 min at 75 °C). The solution was diluted to a concentration of 0.1 µg/µL. The DNAse treated RNA was stored at −80 °C until further analyses. […] Fluorescence data were recorded at the end of each amplification step. Relative expression levels of the target genes were calculated as fold changes in triplicates for each group using the 2^−ΔΔCt method by normalization to the geometric mean of the Ct values of Sdha and Ywhaz, which were used as reference genes.
(In general: Quantitative PCR measures a nucleic acid by following its amplification.)

For experiment [2], the system named is HMGCS mRNA. Nature of the experiment: RT-qPCR mRNA expression in dHepaRG cells.
Protocol: Three concentrations were selected for each compound (non-toxic, non-toxic/slightly toxic and toxic). The cholesterol level of the dHepaRG cells was measured after a multiple exposure of the highest non-toxic concentrations of tested compounds. […] The expression changes of genes and proteins related to cholesterol metabolism were measured in both single and multiple exposure experiments.
All treatments were performed in triplicates and every experiment was performed three times. The cells were washed twice with ice cold phosphate-buffered saline (PBS), scrapped and stored at −80 °C until use. Total RNA from cells was isolated using TriReagent according to the manufacturer’s instructions (Biotech, Prague, Czech Republic). The purified RNA was dissolved in 40 µL of diethyl pyrocarbonate (DEPC)-treated water (0.01% DEPC in HPLC water, autoclaved) and stored at −80 °C. The measurement of absorbance at 260 and 280 nm using the NanoDrop ND-1000 UV–VIS Spectrophotometer (Thermo Fisher Scientific, Pardubice, Czech Republic) was used to determine RNA yields and purity. Subsequently, the RNA (4 µg) was treated with 2 U of DNase I (New England Biolabs, Ipswich, MA, USA) in a final volume of 30 µL for 25 min at 37 °C, 1.5 µL of 0.1 M ethylenediaminetetraacetic acid was added and the DNAse was inactivated by heat (5 min at 75 °C). The solution was diluted to a concentration of 0.1 µg/µL. The DNAse treated RNA was stored at −80 °C until further analyses. The first strand cDNA was synthesized from 800 ng of total RNA and 1 µL of 50 µM random hexamers (Generi Biotech, Hradec Kralove, Czech Republic) using ProtoScript II reverse transcriptase (New England Biolabs, Ipswich, MA, USA). After the initial heat denaturation of total RNA (65 °C for 5 min), 4 µL of 5× ProtoScript II RT Reaction Buffer, 2 µL of 10× dithiothreitol (DTT), 2 µL of deoxynucleotide (dNTP) Mix 5 mM, 3.5 µL of H2O, and 0.5 µL of ProtoScript II 200 U/µL were added and mixed by pipetting. The reactions (20 µL) were incubated for 10 min at 25 °C, for 50 min at 42 °C, and for 5 min at 80 °C. The obtained cDNAs were diluted 1:6 by DEPC water. The qPCR analyses were carried out using QuantStudio 6 Flex (Applied Biosystems, Foster City, CA, USA) with SYBR green I (Xceed qPCR SG Mix, Institute of Applied Biotechnologies, Prague, Czech Republic) detection according to the manufacturer’s protocol. […] Fluorescence data were recorded at the end of each amplification step. Relative expression levels of the target genes were calculated as fold changes in triplicates for each group using the 2^−ΔΔCt method [28] by normalization to the geometric mean of the Ct values of Sdha and Ywhaz, which were used as reference genes.
In experiment [3] the test system is SREBP-2 (F). Nature of the experiment: Western blot protein level in dHepaRG cells. The procedure: All the treatments were performed in triplicates. Protein concentration was measured using the bicinchoninic acid (BCA) protein assay (Sigma Aldrich, Prague, Czech Republic) according to the manufacturer’s instructions. The proteins were loaded onto a 10% sodium dodecyl sulfate (SDS; w/v)–polyacrylamide gel (with 4% stacking gel) and separated by SDS-PAGE electrophoresis. The proteins were transferred onto a nitrocellulose membrane using wet blot (100 V, 90 min). The membrane blocking was performed in a 5% non-fat dry milk/TRIS-buffered saline-Tween-20 (TBS-T) solution at room temperature for 2 h. Incubation with primary antibodies was accomplished overnight at 10 °C. β-actin was used as housekeeping protein (the list of primary antibodies in Table S2). Afterwards, the membrane was washed with 0.05% TBS-T solution for 6 × 5 min, incubated with respective secondary antibodies conjugated with horseradish peroxidase (bovine anti-rabbit (sc2370, Santa Cruz Biotechnology, Santa Cruz, CA, USA) at room temperature for 1.5 h, and rinsed with TBS-T solution for 6 × 5 min. Visualization of protein bands was carried out using a chemiluminescence kit (GE Healthcare, Buckinghamshire, UK).
On the technique in general: In western blotting, separated proteins are transferred to a membrane and probed.

We go through 1 compound from publication PMC7353089, “The Hepatotoxicity of Alantolactone and Germacrone: Their Influence on Cholesterol and Lipid Metabolism in Differentiated HepaRG Cells” (Nutrients, 2020).

As for `CC[C@H](C)C(=O)O[C@H]1C[C@@H](C)C=C2C=C[C@H](C)[C@H](CC[C@@H]3C[C@@H](O)CC(=O)O3)[C@H]21` [LOV, lovastatin, reference compound], in experiment [1], the “HMGCR mRNA level” value is on record as “decreased significantly”. In addition, in experiment [2], the “HMGCS mRNA level” value is listed as “decreased significantly”. The “SREBP-2 (F) protein level” value in experiment [3] is given as “decreased”.
